Source: PubChem BioAssay AID1259407 (Chemical Carcinogenesis Research Information System (CCRIS), 2018)
Active and inactive are the calls of the source. The rule behind the calls is not given here.

Test system: CCRIS mutagenicity, Ames/micronucleus/aberration tests
Assay: CCRIS mutagenicity studies
[1] = Test System: AMES SALMONELLA TYPHIMURIUM, Strain/Indicator: TA98, Metabolic Activation: NONE, Method: PREINCUBATION
[2] = Test System: AMES SALMONELLA TYPHIMURIUM, Strain/Indicator: TA100, Metabolic Activation: NONE, Method: PREINCUBATION
[3] = Test System: AMES SALMONELLA TYPHIMURIUM, Strain/Indicator: TA102, Metabolic Activation: NONE, Method: PREINCUBATION
[4] = Test System: AMES SALMONELLA TYPHIMURIUM, Strain/Indicator: TA1535, Metabolic Activation: NONE, Method: PREINCUBATION
[5] = Test System: AMES SALMONELLA TYPHIMURIUM, Strain/Indicator: TA1537, Metabolic Activation: NONE, Method: PREINCUBATION
[6] = Test System: AMES SALMONELLA TYPHIMURIUM, Strain/Indicator: TA104, Metabolic Activation: NONE, Method: PREINCUBATION
[7] = Test System: AMES SALMONELLA TYPHIMURIUM, Strain/Indicator: TA98, Metabolic Activation: NONE, Method: STANDARD PLATE
[8] = Test System: AMES SALMONELLA TYPHIMURIUM, Strain/Indicator: TA98, Metabolic Activation: RAT, LIVER, S-9, AROCLOR 1254, Method: STANDARD PLATE
[9] = Test System: AMES SALMONELLA TYPHIMURIUM, Strain/Indicator: TA100, Metabolic Activation: NONE, Method: STANDARD PLATE
[10] = Test System: AMES SALMONELLA TYPHIMURIUM, Strain/Indicator: TA100, Metabolic Activation: RAT, LIVER, S-9, AROCLOR 1254, Method: STANDARD PLATE
[11] = Test System: AMES SALMONELLA TYPHIMURIUM, Strain/Indicator: TA1535, Metabolic Activation: NONE, Method: STANDARD PLATE
[12] = Test System: AMES SALMONELLA TYPHIMURIUM, Strain/Indicator: TA1535, Metabolic Activation: RAT, LIVER, S-9, AROCLOR 1254, Method: STANDARD PLATE
[13] = Test System: AMES SALMONELLA TYPHIMURIUM, Strain/Indicator: TA1537, Metabolic Activation: NONE, Method: STANDARD PLATE
[14] = Test System: AMES SALMONELLA TYPHIMURIUM, Strain/Indicator: TA1537, Metabolic Activation: RAT, LIVER, S-9, AROCLOR 1254, Method: STANDARD PLATE

In the case of `O=S(=O)(O)OOS(=O)(=O)O`, the mutagenic call (Test System: AMES SALMONELLA TYPHIMURIUM, Strain/Indicator: TA97, Metabolic Activation: NONE, Method: PREINCUBATION) is reported as “inactive; negative”, the mutagenic call (Test System: AMES SALMONELLA TYPHIMURIUM, Strain/Indicator: TA97, Metabolic Activation: RAT, LIVER, S-9, AROCLOR 1254, Method: PREINCUBATION) is reported as “inactive; negative” and the mutagenic call [1] is reported as “inactive; negative”. For the same compound, the mutagenic call (Test System: AMES SALMONELLA TYPHIMURIUM, Strain/Indicator: TA98, Metabolic Activation: RAT, LIVER, S-9, KC 500, Method: PREINCUBATION) was “inactive; negative”, the mutagenic call [2] was “inactive; negative” and the mutagenic call (Test System: AMES SALMONELLA TYPHIMURIUM, Strain/Indicator: TA100, Metabolic Activation: RAT, LIVER, S-9, KC 500, Method: PREINCUBATION) was “inactive; negative”. The mutagenic call [3] was “inactive; negative”, the mutagenic call (Test System: AMES SALMONELLA TYPHIMURIUM, Strain/Indicator: TA102, Metabolic Activation: RAT, LIVER, S-9, AROCLOR 1254, Method: PREINCUBATION) was “inactive; negative” and the mutagenic call [4] was “inactive; negative”. For the same compound, the mutagenic call (Test System: AMES SALMONELLA TYPHIMURIUM, Strain/Indicator: TA1535, Metabolic Activation: RAT, LIVER, S-9, KC 500, Method: PREINCUBATION) was “inactive; negative”, the mutagenic call [5] was “inactive; negative” and the mutagenic call (Test System: AMES SALMONELLA TYPHIMURIUM, Strain/Indicator: TA1537, Metabolic Activation: RAT, LIVER, S-9, KC 500, Method: PREINCUBATION) was “inactive; negative”. The mutagenic call (Test System: AMES SALMONELLA TYPHIMURIUM, Strain/Indicator: TA1538, Metabolic Activation: NONE, Method: PREINCUBATION) was “inactive; negative”, the mutagenic call (Test System: AMES SALMONELLA TYPHIMURIUM, Strain/Indicator: TA1538, Metabolic Activation: RAT, LIVER, S-9, KC 500, Method: PREINCUBATION) was “inactive; negative” and the mutagenic call (Test System: E. COLI, Strain/Indicator: WP2 UVRA, Metabolic Activation: NONE, Method: PREINCUBATION) was “inactive; negative”. For the same compound, the mutagenic call (Test System: E. COLI, Strain/Indicator: WP2 UVRA, Metabolic Activation: RAT, LIVER, S-9, KC 500, Method: PREINCUBATION) was “inactive; negative”.

For `O=C(Cl)Cc1ccccc1`, the mutagenic call [1] was “active; positive”, the mutagenic call (Test System: AMES SALMONELLA TYPHIMURIUM, Strain/Indicator: TA98, Metabolic Activation: RAT LIVER S-9, PCB, Method: PREINCUBATION) was “active; positive” and the mutagenic call [2] was “active; positive”. The mutagenic call (Test System: AMES SALMONELLA TYPHIMURIUM, Strain/Indicator: TA100, Metabolic Activation: RAT LIVER S-9, PCB, Method: PREINCUBATION) was “active; positive”, the mutagenic call [6] was “active; positive” and the mutagenic call (Test System: AMES SALMONELLA TYPHIMURIUM, Strain/Indicator: TA104, Metabolic Activation: RAT LIVER S-9, PCB, Method: PREINCUBATION) was “active; positive”. The mutagenic call (Test System: E.COLI, Strain/Indicator: WP2 UVRA, Metabolic Activation: NONE, Method: PREINCUBATION) was “active; positive” and the mutagenic call (Test System: E.COLI, Strain/Indicator: WP2 UVRA, Metabolic Activation: RAT LIVER S-9, PCB, Method: PREINCUBATION) was “active; positive”.

In the case of `O=C(Br)CBr`, the mutagenic call (End Point: IN VITRO CHROMOSOMAL ABERRATIONS, Test System: CHL CELLS, Metabolic Activation: RAT, LIVER, S-9, SODIUM PHENOBARBITAL AND 5,6-BENZOFLAVONE) is reported as “inactive; negative; authors report equivocal results for structural changes at 0.02 mg/ml”, the mutagenic call [1] is reported as “inactive; negative” and the mutagenic call (Test System: AMES SALMONELLA TYPHIMURIUM, Strain/Indicator: TA98, Metabolic Activation: RAT, LIVER, S-9, PHENOBARBITAL AND BETA-NAPHTHOFLAVONE, Method: PREINCUBATION) is reported as “inactive; negative”. For the same compound, the mutagenic call [2] was “inactive; negative”, the mutagenic call (Test System: AMES SALMONELLA TYPHIMURIUM, Strain/Indicator: TA100, Metabolic Activation: RAT, LIVER, S-9, PHENOBARBITAL AND BETA-NAPHTHOFLAVONE, Method: PREINCUBATION) was “inactive; negative” and the mutagenic call [3] was “inactive; negative”. The mutagenic call (Test System: AMES SALMONELLA TYPHIMURIUM, Strain/Indicator: TA102, Metabolic Activation: RAT, LIVER, S-9, PHENOBARBITAL AND BETA-NAPHTHOFLAVONE, Method: PREINCUBATION) was “inactive; negative”, the mutagenic call [6] was “active; positive” and the mutagenic call (Test System: AMES SALMONELLA TYPHIMURIUM, Strain/Indicator: TA104, Metabolic Activation: RAT, LIVER, S-9, PHENOBARBITAL AND BETA-NAPHTHOFLAVONE, Method: PREINCUBATION) was “active; positive”. For the same compound, the mutagenic call [4] was “inactive; negative”, the mutagenic call (Test System: AMES SALMONELLA TYPHIMURIUM, Strain/Indicator: TA1535, Metabolic Activation: RAT, LIVER, S-9, PHENOBARBITAL AND BETA-NAPHTHOFLAVONE, Method: PREINCUBATION) was “inactive; negative” and the mutagenic call [5] was “inactive; negative”. For the same compound, the mutagenic call (Test System: AMES SALMONELLA TYPHIMURIUM, Strain/Indicator: TA1537, Metabolic Activation: RAT, LIVER, S-9, PHENOBARBITAL AND BETA-NAPHTHOFLAVONE, Method: PREINCUBATION) was “inactive; negative”, the mutagenic call (Test System: E. COLI, Strain/Indicator: WP2UVRA/PKM101, Metabolic Activation: RAT, LIVER, S-9, PHENOBARBITAL AND BETA-NAPHTHOFLAVONE, Method: PREINCUBATION) was “active; positive” and the mutagenic call (Test System: E. COLI, Strain/Indicator: WP2UVRA, Metabolic Activation: NONE, Method: PREINCUBATION) was “inactive; negative”. For the same compound, the mutagenic call (Test System: E. COLI, Strain/Indicator: WP2UVRA, Metabolic Activation: RAT, LIVER, S-9, PHENOBARBITAL AND BETA-NAPHTHOFLAVONE, Method: PREINCUBATION) was “inactive; negative”.

With `C[C@]12CC[C@@H](OC(=O)/C=C/c3cccc(N(CCCl)CCCl)c3)C[C@@H]1CC[C@@H]1[C@@H]2CC[C@]2(C)NC(=O)CC[C@@H]12` the mutagenic call [7] was “inactive; negative”, the mutagenic call [8] was “inactive; negative” and the mutagenic call [9] was “inactive; negative”. For the same compound, the mutagenic call [10] was “inactive; negative”, the mutagenic call [11] was “active; positive” and the mutagenic call [12] was “active; positive”. The mutagenic call [13] was “inactive; negative” and the mutagenic call [14] was “inactive; negative”.

`O=C(O)/C=C(/CC(=O)O)C(=O)O` was tested, and the mutagenic call [7] was “inactive; negative”, the mutagenic call [8] was “inactive; negative” and the mutagenic call [9] was “inactive; negative”. For the same compound, the mutagenic call [10] was “inactive; negative”, the mutagenic call [11] was “inactive; negative” and the mutagenic call [12] was “inactive; negative”. The mutagenic call [13] was “inactive; negative” and the mutagenic call [14] was “inactive; negative”.

With `O=[N+]([O-])c1cnc2c(c1)nc1ccccn12` the mutagenic call [7] was “active; positive”, the mutagenic call (Test System: AMES SALMONELLA TYPHIMURIUM, Strain/Indicator: TA98, Metabolic Activation: RAT, LIVER, CYTOSOL, AROCLOR 1254, Method: STANDARD PLATE) was “active; positive” and the mutagenic call (Test System: AMES SALMONELLA TYPHIMURIUM, Strain/Indicator: TA98, Metabolic Activation: RAT, LIVER, MICROSOMES, AROCLOR 1254, Method: STANDARD PLATE) was “active; positive”. The mutagenic call [8] was “active; positive”.
